Experimental data as given in publication PMC6178183, “Development of a HPLC-MS/MS Method to Determine 11 Bioactive Compounds in Tongmai Yangxin Pill and Application to a Pharmacokinetic Study in Rats” (Evidence-based Complementary and Alternative Medicine : eCAM, 2018).
Values joined by “and” are separate entries in the source; they are usually repeats but may differ in a detail not shown here. Equal entries are not always repeated.

Columns and labels:
[1] = design: method as in PMID 25943824; details: active ingredients of TMYX with high R values; cited from earlier work
[2] = Pharmacokinetic study in rats after oral administration of TMYX extract (HPLC-MS/MS of plasma); format: in vivo, Sprague–Dawley rats; details: rat plasma; for AUC(0-inf) / half-life / AUC / k el: male, Sprague-Dawley; for AUC: read-out: AUC (0-tn); for k el: read-out: K e (converted); for T max1: n=6, mean ± SD
Procedure: The HPLC-MS/MS system consists of an Agilent 1200 high-performance liquid chromatography coupled with an Aglient 6430 series triple quadrupole mass spectrometer with an electrospray ionization (ESI) source. The chromatographic separation was achieved on a CORTECS C18 column (4.6 mm × 150 mm, 2.7 μm), and the column temperature was kept at 30°C. Mobile phases which consisted of 0.1% formic acid in water (A) and acetonitrile (B) were used in the following gradient elution method: 0-10 min, 10%-85% B; 10-13 min, 85%-95% B; 13-19 min, 95%-95% B. The flow rate was set at 0.3 mL/min, and the injection volume was 10 μL. All data were analyzed by Mass Hunter workstation software (Agilent Technologies, USA).
The mass spectrometer was carried out in both positive and negative ionization multiple-reaction monitoring (MRM) mode. The source parameters were as follows: the capillary voltage set at 300 V for positive ionization mode and -300 V for negative ionization mode, the drying gas temperature was 320°C, the flow was 11 L/min, and nebulizing gas pressure was 30 psi.
The plasma (100 μL) was spiked with 20 μL of methanol, 20 μL of the IS (icariin, 1 μg/mL), and 20 μL of formic acid and then vortex-mixed. The mixture was extracted with 800 μL of ethyl acetate by vortex mixing for 5 min at room temperature. After centrifugation at 14,000 rpm for 10 min, the supernatant was collected to a clean tube and evaporated to dryness under a nitrogen stream. The residue was reconstituted in 50 μL of 50% methanol, vortexed for 5 min, and centrifuged at 14,000 rpm for 10 min. Finally, 10 μL supernatant was injected into the LC-MS/MS system for analysis.
Male Sprague–Dawley rats (230-250 g) were obtained from Beijing HFK Experimental Animal Technology Co., Ltd. The rats were maintained under the control environmental conditions and they fasted for 12 h with free access to water before the experiments. TMYX extracts were dissolved in CMC-Na and administrated orally to rats at 8.3 g/kg. The blood samples (200 μL) were collected from the rat fossa orbitalis vein at 0, 0.03, 0.083, 0.17, 0.25, 0.5, 1, 2, 4, 6, 8, 10, 12, 24, 36, and 48 h after oral administration to heparinized tubes. And then the blood samples were centrifuged at 7,000 rpm for 10 min to get the plasma sample immediately. Finally, the plasma obtained was stored at −70°C until analysis. Pharmacokinetic parameters were calculated by the computer program “Drug and Statistics 2.0” (DAS 2.0) (Medical College of Wannan, China).

[3] = Stability of analytes in rat plasma QC samples under storage conditions; format: in vitro ADME; details: n=6, gallic acid, ononin, schisandrin, stilbene glycoside, liquiritigenin, rhein, verbascoside; for Measured Concentration, auto-sampler for 12 h: prepared rat plasma samples; for Measured Concentration, -70°C for 14 days / Measured Concentration, room temperature for 6 h / Measured Concentration, three freeze-thaw cycles: rat plasma
Procedure: Quality control (QC) samples at three concentrations (low, medium, and high concentration) were made up of appropriate mixed standard solutions with blank blood sample as calibration solutions to meet the required concentrations. All the solutions were kept at 4°C.
The stability of analytes in plasma samples was determined by analyzing QC samples of three concentration levels at different conditions: stored at autosampler for 12 h, at room temperature for 6 h, under three freeze-thaw cycles and stored at -70°C for 14 days. All stability studies were measured in six replicates.

[4] = oral TMYX extract 8.3 g/kg single dose, n=6
[5] = oral TMYX extract 8.3 g/kg single dose
[6] = high QC: spiked 2000 ng/mL glycyrrhizic acid, 1000 liquiritin, 200 emodin, 100 isoliquiritigenin
[7] = low QC: spiked 20 ng/mL glycyrrhizic acid, 10 liquiritin, 2 emodin, 1 isoliquiritigenin
[8] = medium QC: spiked 200 ng/mL glycyrrhizic acid, 100 liquiritin, 20 emodin, 10 isoliquiritigenin
[9] = second peak, oral TMYX extract 8.3 g/kg single dose, n=6

Row | SMILES | AUC(0-inf) [2, 4] | half-life [2, 4] | AUC [2, 4] | k el [2, 4] | C max1 [2, 4] | T max1 [2, 5] | Measured Concentration, auto-sampler for 12 h [3, 6] | Measured Concentration, auto-sampler for 12 h [3, 7] | Measured Concentration, auto-sampler for 12 h [3, 8] | Measured Concentration, -70°C for 14 days [3, 6] | Measured Concentration, room temperature for 6 h [3, 6] | Measured Concentration, three freeze-thaw cycles [3, 6] | Measured Concentration, -70°C for 14 days [3, 7] | Measured Concentration, room temperature for 6 h [3, 7] | Measured Concentration, three freeze-thaw cycles [3, 7] | Measured Concentration, -70°C for 14 days [3, 8] | Measured Concentration, room temperature for 6 h [3, 8] | Measured Concentration, three freeze-thaw cycles [3, 8] | antiinflammatory effects [1] | further results
1 | COc1cc2c(c(OC)c1OC)-c1c3cc4c(c1OC[C@@H](C)[C@@](C)(O)C(=O)O[C@@H]2[C@@](C)(O)[C@@H](C)C3)OCO4 [gomisin D] |  |  |  |  |  |  |  |  |  |  |  |  |  |  |  |  |  |  | exert antiinflammatory effects in a dose-dependent manner | 
2 | COc1ccc(-c2coc3cc(O[C@@H]4O[C@H](CO)[C@@H](O)[C@H](O)[C@H]4O)ccc3c2=O)cc1 [ononin] | 69.4 ± 28.5 ng·h/mL | 2.85 ± 1.4 h | 58.2 ± 20.2 ng·h/mL | 0.000103 s⁻¹ | 14.4 ± 6.8 ng/mL | 0.46 ± 0.10 h | 195.34 ± 4.30 ng/mL | 1.83 ± 0.01 ng/mL | 18.84 ± 0.62 ng/mL | 200.23 ± 3.89 ng/mL | 216.32 ± 0.91 ng/mL | 191.28 ± 2.36 ng/mL | 1.95 ± 0.01 ng/mL | 2.02 ± 0.03 ng/mL | 1.85 ± 0.01 ng/mL | 18.51 ± 0.15 ng/mL | 20.57 ± 0.26 ng/mL | 18.71 ± 0.26 ng/mL | exert antiinflammatory effects in a dose-dependent manner | 
3 | C[C@@H]1O[C@@H](O[C@@H]2[C@@H](O)[C@H](OCCc3ccc(O)c(O)c3)O[C@H](CO)[C@H]2OC(=O)/C=C/c2ccc(O)c(O)c2)[C@H](O)[C@H](O)[C@H]1O [verbascoside] | 61 ± 29.8 ng·h/mL | 1.53 ± 0.67 h | 51.4 ± 29.8 ng·h/mL | 0.000156 s⁻¹ | 23.4 ± 8.7 ng/mL | 0.37 ± 0.18 h | 93.52 ± 0.27 ng/mL | 1.05 ± 0.02 ng/mL | 9.50 ± 0.04 ng/mL | 107.40 ± 1.47 ng/mL | 103.95 ± 1.33 ng/mL | 108.42 ± 1.17 ng/mL | 1.01 ± 0.02 ng/mL | 0.92 ± 0.01 ng/mL | 1.09 ± 0.01 ng/mL | 9.81 ± 0.22 ng/mL | 9.57 ± 0.21 ng/mL | 10.17 ± 0.90 ng/mL |  | 
4 | O=C(O)c1cc(O)c(O)c(O)c1 [gallic acid] | 238 ± 173 ng·h/mL | 3.01 ± 1.35 h | 215 ± 137 ng·h/mL | 7.5e-05 s⁻¹ | 56.9 ± 42.8 ng/mL | 0.75 ± 0.67 h | 184.54 ± 2.46 ng/mL | 2.03 ± 0.05 ng/mL | 19.27 ± 0.35 ng/mL | 199.19 ± 1.80 ng/mL | 205.97 ± 2.14 ng/mL | 196.77 ± 1.09 ng/mL | 1.99 ± 0.04 ng/mL | 1.97 ± 0.03 ng/mL | 1.93 ± 0.04 ng/mL | 19.26 ± 0.22 ng/mL | 20.77 ± 1.09 ng/mL | 20.08 ± 0.51 ng/mL |  | 
5 | COc1ccc(-c2coc3cc(O)ccc3c2=O)cc1 [formononetin] |  |  |  |  |  |  |  |  |  |  |  |  |  |  |  |  |  |  | exert antiinflammatory effects in a dose-dependent manner | 

More lines, main results first:

Row | AUC(0-inf) [2, 4] | half-life [2, 4] | AUC [2, 4] | k el [2, 4] | C max1 [2, 4] | T max1 [2, 5] | Measured Concentration, auto-sampler for 12 h [3, 6] | Measured Concentration, auto-sampler for 12 h [3, 7] | Measured Concentration, auto-sampler for 12 h [3, 8] | Measured Concentration, -70°C for 14 days [3, 6] | Measured Concentration, room temperature for 6 h [3, 6] | Measured Concentration, three freeze-thaw cycles [3, 6] | Measured Concentration, -70°C for 14 days [3, 7] | Measured Concentration, room temperature for 6 h [3, 7] | Measured Concentration, three freeze-thaw cycles [3, 7] | Measured Concentration, -70°C for 14 days [3, 8] | Measured Concentration, room temperature for 6 h [3, 8] | Measured Concentration, three freeze-thaw cycles [3, 8] | SMILES | antiinflammatory effects [1] | further results
6 | 152 ± 61.3 ng·h/mL | 2.84 ± 2.13 h | 145 ± 52.6 ng·h/mL | 0.000156 s⁻¹ | 46.3 ± 15.6 ng/mL | 0.36 ± 0.31 h | 97.32 ± 1.05 ng/mL | 0.97 ± 0.01 ng/mL | 9.86 ± 0.09 ng/mL | 85.95 ± 0.39 ng/mL | 101.97 ± 1.07 ng/mL | 86.7 ± 1.33 ng/mL | 0.95 ± 0.05 ng/mL | 0.97 ± 0.02 ng/mL | 0.98 ± 0.03 ng/mL | 8.71 ± 0.11 ng/mL | 10.23 ± 0.04 ng/mL | 8.89 ± 0.08 ng/mL | O=C(O)c1cc(O)c2c(c1)C(=O)c1cccc(O)c1C2=O [rhein] |  | 
7 | 436 ± 154 ng·h/mL | 13.5 ± 8.33 h | 410 ± 131 ng·h/mL | 1.94e-05 s⁻¹ | 41.6 ± 24.2 ng/mL | 0.28 h and 0.28 ± 0.11 h | 97.47 ± 1.99 ng/mL | 1.00 ± 0.02 ng/mL | 9.60 ± 0.04 ng/mL | 100.74 ± 2.95 ng/mL | 106.11 ± 0.78 ng/mL | 100.58 ± 0.91 ng/mL | 0.89 ± 0.01 ng/mL | 0.99 ± 0.01 ng/mL | 0.89 ± 0.02 ng/mL | 8.62 ± 0.04 ng/mL | 10.86 ± 0.60 ng/mL | 8.69 ± 0.14 ng/mL | O=C(/C=C/c1ccc(O)cc1)c1ccc(O)cc1O [isoliquiritigenin] |  | detection in vivo at 48 h ([2]; 48 h after oral TMYX extract 8.3 g/kg): can still be detected in vivo at 48 h; peaks in the mean plasma concentration-time profile ([2]; oral TMYX extract 8.3 g/kg): double peaks; C max2 [2, 9]: 24.9 ± 13.5 ng/mL; T max2 [2, 9]: 7.00 h and 7.00 ± 2.45 h
8 | 651 ± 220 ng·h/mL | 2.16 ± 1.44 h | 637 ± 220 ng·h/mL | 0.000214 s⁻¹ | 199.9 ± 120.2 ng/mL | 0.50 ± 0.46 h | 869.12 ± 14.52 ng/mL | 10.26 ± 0.11 ng/mL | 108.02 ± 0.66 ng/mL | 1021.69 ± 19.98 ng/mL | 1076.07 ± 10.27 ng/mL | 952.89 ± 11.22 ng/mL | 10.04 ± 0.12 ng/mL | 9.85 ± 0.09 ng/mL | 9.26 ± 0.16 ng/mL | 105.05 ± 1.73 ng/mL | 108.97 ± 1.51 ng/mL | 109.67 ± 1.86 ng/mL | O=C1C[C@@H](c2ccc(O[C@@H]3O[C@H](CO)[C@@H](O)[C@H](O)[C@H]3O)cc2)Oc2cc(O)ccc21 [liquiritin] |  | 
